Laboratory results taken from the NIST ThermoML archive (doi:10.1021/je400250u).

Assays:
[1] = refractive index (Na D-line) (dimensionless); xn = mol fraction of the nth substance listed; details: 100 kPa, Liquid, Standard Abbe refractometry
[2] = xn = mol fraction of the nth substance listed; details: 100 kPa, Liquid; for viscosity: Capillary tube (Ostwald / Ubbelohde) method; for mass density: Vibrating tube method

C1CC[C@H]2CCCC[C@@H]2C1 [trans-decahydronaphthalene] + CCCCCCCCC
Details	mass density, [2] [kg/m3]	refractive index, [1]	viscosity, [2] [mPa·s]
293.15 K, x1 = 0.1036	732.72	–	0.772
293.15 K, x1 = 0.2018	746.84	–	0.836
293.15 K, x1 = 0.3016	761.45	–	0.912
293.15 K, x1 = 0.4042	776.68	–	1.004
293.15 K, x1 = 0.4954	790.42	–	1.109
293.15 K, x1 = 0.6009	806.55	–	1.253
293.15 K, x1 = 0.6984	821.69	–	1.409
293.15 K, x1 = 0.8001	837.66	–	1.635
293.15 K, x1 = 0.8933	852.53	–	1.864
293.15 K, x1 = 1	869.78	–	2.112
298.15 K, x1 = 0.1036	728.87	1.4084	0.725
298.15 K, x1 = 0.2018	743	1.4146	0.781
298.15 K, x1 = 0.3016	757.63	1.4205	0.849
298.15 K, x1 = 0.4042	772.88	1.4273	0.934
298.15 K, x1 = 0.4954	786.63	1.4326	1.028
298.15 K, x1 = 0.6009	802.78	1.4397	1.154
298.15 K, x1 = 0.6984	817.94	1.4459	1.305
298.15 K, x1 = 0.8001	833.93	1.4526	1.505
298.15 K, x1 = 0.8933	848.8	1.4591	1.701
298.15 K, x1 = 1	866.07	1.4662	1.925
303.15 K, x1 = 0.1036	724.99	–	0.681
303.15 K, x1 = 0.2018	739.14	–	0.732
303.15 K, x1 = 0.3016	753.79	–	0.795
303.15 K, x1 = 0.4042	769.06	–	0.871
303.15 K, x1 = 0.4954	782.83	–	0.957
303.15 K, x1 = 0.6009	798.99	–	1.075
303.15 K, x1 = 0.6984	814.17	–	1.213
303.15 K, x1 = 0.8001	830.18	–	1.393
303.15 K, x1 = 0.8933	845.07	–	1.568
303.15 K, x1 = 1	862.34	–	1.769
308.15 K, x1 = 0.1036	721.09	1.4038	0.642
308.15 K, x1 = 0.2018	735.26	1.4105	0.688
308.15 K, x1 = 0.3016	749.94	1.4163	0.746
308.15 K, x1 = 0.4042	765.23	1.423	0.816
308.15 K, x1 = 0.4954	779.01	1.4286	0.893
308.15 K, x1 = 0.6009	795.19	1.435	0.998
308.15 K, x1 = 0.6984	810.39	1.4418	1.127
308.15 K, x1 = 0.8001	826.41	1.4486	1.29
308.15 K, x1 = 0.8933	841.33	1.455	1.447
308.15 K, x1 = 1	858.61	1.4618	1.628
313.15 K, x1 = 0.1036	717.18	–	0.607
313.15 K, x1 = 0.2018	731.37	–	0.65
313.15 K, x1 = 0.3016	746.07	–	0.704
313.15 K, x1 = 0.4042	761.38	–	0.766
313.15 K, x1 = 0.4954	775.18	–	0.838
313.15 K, x1 = 0.6009	791.38	–	0.929
313.15 K, x1 = 0.6984	806.6	–	1.052
313.15 K, x1 = 0.8001	822.64	–	1.202
313.15 K, x1 = 0.8933	837.57	–	1.334
313.15 K, x1 = 1	854.88	–	1.505
318.15 K, x1 = 0.1036	713.25	1.3993	0.576
318.15 K, x1 = 0.2018	727.46	1.406	0.614
318.15 K, x1 = 0.3016	742.18	1.4122	0.663
318.15 K, x1 = 0.4042	757.52	1.4187	0.723
318.15 K, x1 = 0.4954	771.34	1.4249	0.786
318.15 K, x1 = 0.6009	787.56	1.4312	0.869
318.15 K, x1 = 0.6984	802.8	1.4379	0.984
318.15 K, x1 = 0.8001	818.86	1.4445	1.118
318.15 K, x1 = 0.8933	833.81	1.4509	1.241
318.15 K, x1 = 1	851.14	1.4581	1.394
323.15 K, x1 = 0.1036	709.3	–	0.547
323.15 K, x1 = 0.2018	723.54	–	0.583
323.15 K, x1 = 0.3016	738.28	–	0.627
323.15 K, x1 = 0.4042	753.64	–	0.682
323.15 K, x1 = 0.4954	767.48	–	0.742
323.15 K, x1 = 0.6009	783.73	–	0.821
323.15 K, x1 = 0.6984	798.99	–	0.922
323.15 K, x1 = 0.8001	815.08	–	1.041
323.15 K, x1 = 0.8933	830.05	–	1.156
323.15 K, x1 = 1	847.4	–	1.295
